# Experiments:
# [1] = system: female Japanese quail (Coturnix japonica); assay: Liver histological analysis (histopathological index); format: in vivo
# Excerpt: A total of 50 eighty-five days-old female quail of homogeneous body weights (251 ± 1 g; Mean ± SE) and in their egg-laying peak were selected from an initial group of 96 female individuals. All birds continued receiving a basal diet between 85 and 100 days of age and all variables (see below for details) were registered along this period (Pre-supplementation period, Fig 1). From 100 to 128 days of age (S period, Fig 1), females were randomly assigned to either a chronic dietary supplementation with one of 3 THY doses (THY2, THY4 and THY6; 10 females each) or to one of 2 control groups (basal diet, BASAL, and basal diet with vehicle solution, VEHICLE; 10 females each). Once finished the S period, half of the quail were slaughtered for histological analysis (n = 25; Slaughter 1, Fig 1) and the other half were subjected to a pS period of 21 days, during which all females received the BASAL diet (pS, Fig 1). After this period, the remaining 25 animals were also slaughtered for histological analysis (Slaughter 2, Fig 1). In this way, we assessed whether THY induced changes in variables indicative of tissue damage and if so, whether the potential damages could reverse after 3 weeks of supplement withdrawal.
# At each slaughter point birds were euthanized by decapitation and livers were removed and stored in buffered formalin at 10%, processed routinely and stained with hematoxylin and eosin (H&E) and periodic acid-Schiff (PAS). Each slide was examined blinded, with a light microscope (Olympus X-785) and photographed with a digital camera (Moticam Camera 2300, 3 Megapixels). To evaluate histological alterations of liver, tissue was divided into 8 random equal areas to ensure there was no overlapping of the studied areas. For each area, the extension and number of each alteration were recorded with a microscope at 40X magnitude. Histopathological index of liver (HIliv) were estimated using a semi-quantitative protocol following, modified by our colleagues. Briefly, alterations were classified into four major reaction patterns each one of those including alterations that concern to different functional units of the liver or to the whole organ: RP1, circulatory disturbances (dilatation of sinusoids, vascular congestion, hemorrhage); RP2, regressive changes (steatosis or fatty degeneration, hydropic degeneration, nuclear alteration, fibrosis, necrosis); RP3, progressive changes (oval cells, cell hypertrophy and hyperplasia); and RP4, liver inflammation (leukocyte infiltration). Then, for each RP, an index was calculated based on two factors: the pathological importance of the lesions (importance factor, W) (range 1–3) and the extension of pathological change (score value, a) from 0 (unchanged) to 8 (extreme occurrence). Finally, a total liver histopathological index (HIliv) was calculated by adding the single RP liver indices of each individual quail. A greater value of (HIliv) reflects the most severely affected individual.
# [2] = system: female Japanese quail (Coturnix japonica); assay: Total fatty acid analysis in egg yolks (GC/MS of FAME); format: in vivo; conditions: for egg yolk SFA reduction disappeared after post-supplementation / persistence of reduced egg yolk 16:0 concentration after post-supplementation / persistence of reduced egg yolk 18:0 concentration after post-supplementation: 21 days of pS
# Excerpt: All birds continued receiving a basal diet between 85 and 100 days of age and all variables (see below for details) were registered along this period (Pre-supplementation period, Fig 1). […] Once finished the S period, half of the quail were slaughtered for histological analysis (n = 25; Slaughter 1, Fig 1) and the other half were subjected to a pS period of 21 days, during which all females received the BASAL diet (pS, Fig 1). After this period, the remaining 25 animals were also slaughtered for histological analysis (Slaughter 2, Fig 1). In this way, we assessed whether THY induced changes in variables indicative of tissue damage and if so, whether the potential damages could reverse after 3 weeks of supplement withdrawal.
# To assess changes in egg yolk total FA composition, egg physical characteristics, laying rate, body weight, feed intake and general welfare, during the S and pS periods, five sampling points were defined (Sample points, Fig 1): one initial sample point (at 0 days of S); three sample points during the S period (at 7, 14 and 28 days of S); and one sample point at the end of the pS period (21 days of pS). It should be noted that for determinations of THY concentration, eggs and quail droppings were collected offset from the other variables measured by 2 days, thus were collected on days 2, 9, 16, and 26 days of S, and 17 days of pS, respectively.
# Eggs were obtained at each sample point (Sample points, Fig 1) and stored at -20°C until yolk total fatty acids analysis. Lipids were extracted from the yolk following homogenization in a suitable excess of chloroform/methanol (2:1 v/v). The solvents were removed under reduced pressure in a rotary evaporator. Lipids were subjected to alkaline saponification (1 mol/L potassium hydroxide in methanol), and the unsaponifiable matter was extracted with n-hexane. The fatty acid methyl esters (FAMEs) were prepared by transmethylation through treatment with 1 mol/L sulfuric acid in methanol and analyzed by gas chromatography/mass spectrometry (GC/MS). All chemicals used in this study were reagent-grade commercial products. FAMEs were analyzed by gas chromatography on a 60 m fused capillary column with an internal diameter of 0.25 mm (PerkinElmer Elite-WAX Polyethylene Glycol). The analysis was performed on a PerkinElmer Clarus® 600 GC/MS system equipped with a flame ionization detector (Waltham, MA, USA). […] The injection port temperature was 250°C and the detector temperature was 250°C. […] Peak identification was carried out by comparing the known retention times for the fatty acids reported with the temperature program and the chromatographic system used.
# [3] = overall mean over control and 2, 4, 6.25 g thymol/kg feed diets and two slaughter batches
# [4] = overall mean over control and 2, 4, 6.25 g thymol/kg feed diets and two slaughter batches, no effect of diet
# [5] = THY6, 6.25 g of thymol/kg of feed
# [6] = all THY supplemented diets (2, 4, 6.25 g/kg of feed)
compound,measurement,setting,value
"Cc1ccc(C(C)C)c(O)c1 [THY, 2 isopropyl-5-methylphenol]",effect on histopathological features of the liver,"[1]; 2, 4, 6.25 g of THY/kg feed, 28 days S and 21 days pS",did not affect
same,"HILiv.Rp3 (liver histopathological index, progressive changes)",[1]; [3],"0,80"
same,"HILiv.Rp4 (liver histopathological index, inflammation)",[1]; [3],"0,27"
same,HILiv (total liver histopathological index),[1]; [4],"22,58"
same,"HILiv.Rp2 (liver histopathological index, regressive changes)",[1]; [4],"16,80"
same,effect on egg yolk MUFA,"[2]; 2, 4, 6.25 g of thymol/kg of feed, diet, time of sampling or interaction",No differences
same,supplementation time by which reduced egg yolk 16:0 (palmitic acid) concentration was achieved,"[2]; THY2, 2 g of thymol/kg of feed",28 days of S
same,supplementation time by which reduced egg yolk 18:0 (stearic acid) concentration was achieved,"[2]; THY2, 2 g of thymol/kg of feed",28 days of S
same,supplementation time required for increasing egg yolk 22:5 (docosapentaenoic acid),"[2]; THY2, 2 g of thymol/kg of feed",14 days of S
same,supplementation time required to reduce egg yolk SFA concentration,"[2]; THY2, 2 g of thymol/kg of feed",28 days of S
same,egg yolk SFA reduction disappeared after post-supplementation,"[2]; THY2, 2 g of thymol/kg of feed",disappeared
same,persistence of reduced egg yolk 16:0 concentration after post-supplementation,"[2]; THY2, 2 g of thymol/kg of feed",returned to initial levels
same,persistence of reduced egg yolk 18:0 concentration after post-supplementation,"[2]; THY2, 2 g of thymol/kg of feed",continued
same,effect on egg yolk PUFA concentration,"[2]; THY2, 2 g of thymol/kg of feed, S period",failed to increase PUFA
same,effect on egg yolk 16:1 (palmitoleic acid),"[2]; THY2, 2 g of thymol/kg of feed, by 7 and 14 days of S",transient decrease
same,day of supplementation by which egg yolk polyunsaturated fatty acids increased,"[2]; THY4, 4 g of thymol/kg of feed",14 day of supplementation
same,supplementation time by which reduced egg yolk 16:0 (palmitic acid) concentration was achieved,"[2]; THY4, 4 g of thymol/kg of feed",14 days of S
same,supplementation time by which reduced egg yolk 18:0 (stearic acid) concentration was achieved,"[2]; THY4, 4 g of thymol/kg of feed",14 days of S
same,supplementation time from which egg yolk 18:3 (linolenic acid) concentration was higher,"[2]; THY4, 4 g of thymol/kg of feed",14 days of S
same,supplementation time from which egg yolk 20:4 (arachidonic acid) concentration was higher,"[2]; THY4, 4 g of thymol/kg of feed",14 days of S
same,supplementation time required for increasing egg yolk 22:5 (docosapentaenoic acid),"[2]; THY4, 4 g of thymol/kg of feed",14 days of S
same,supplementation time required to reduce egg yolk SFA concentration,"[2]; THY4, 4 g of thymol/kg of feed",14 days of S
same,egg yolk SFA reduction disappeared after post-supplementation,"[2]; THY4, 4 g of thymol/kg of feed",not
same,persistence of reduced egg yolk 16:0 concentration after post-supplementation,"[2]; THY4, 4 g of thymol/kg of feed",continued
same,persistence of reduced egg yolk 18:0 concentration after post-supplementation,"[2]; THY4, 4 g of thymol/kg of feed",continued
same,effect on egg yolk PUFA concentration,"[2]; THY4, 4 g of thymol/kg of feed, S period and 21 days of pS",induced PUFA increments that remained enhanced even at 21 days of pS
same,effect on egg yolk 16:1 (palmitoleic acid),"[2]; THY4, 4 g of thymol/kg of feed, at 21 days of pS",transient decrease
same,day of supplementation by which egg yolk polyunsaturated fatty acids increased,[2]; [5],14 day of supplementation
same,supplementation time by which reduced egg yolk 16:0 (palmitic acid) concentration was achieved,[2]; [5],14 days of S
same,supplementation time by which reduced egg yolk 18:0 (stearic acid) concentration was achieved,[2]; [5],14 days of S
same,supplementation time from which egg yolk 18:3 (linolenic acid) concentration was higher,[2]; [5],14 days of S
same,supplementation time from which egg yolk 20:4 (arachidonic acid) concentration was higher,[2]; [5],14 days of S
same,supplementation time required for increasing egg yolk 22:5 (docosapentaenoic acid),[2]; [5],7 days of S
same,egg yolk SFA reduction disappeared after post-supplementation,[2]; [5],not
same,persistence of reduced egg yolk 16:0 concentration after post-supplementation,[2]; [5],continued
same,persistence of reduced egg yolk 18:0 concentration after post-supplementation,[2]; [5],returned to initial levels
same,effect on egg yolk PUFA concentration,"[2]; THY6, 6.25 g of thymol/kg of feed, S period and 21 days of pS",induced PUFA increments that remained enhanced even at 21 days of pS
same,effect on egg yolk 16:1 (palmitoleic acid),"[2]; THY6, 6.25 g of thymol/kg of feed, at 21 days of pS",transient decrease
same,supplementation time required to reduce egg yolk SFA concentration,"[2]; THY6, 6.25 g of thymol/kg of feed, reduction of even greater magnitude",14 days of S
same,supplementation time from which egg yolk 20:5 (eicosapentaenoic acid) was increased,[2]; [6],7 days of S
same,supplementation time from which egg yolk 22:6 (docosahexaenoic acid) was increased,[2]; [6],7 days of S

# Reference: paper PMC6508865, “Dynamics of thymol dietary supplementation in quail (Coturnix japonica): Linking bioavailability, effects on egg yolk total fatty acids and performance traits” (PLoS ONE, 2019)
